Data on one compound can be found in PMC5040747, “Preparation and Evaluation of a Novel Class of Amphiphilic Amines as Antitumor Agents and Nanocarriers for Bioactive Molecules” (Pharmaceutical Research, 2016).

One data set concerns A673. In words: Intracellular ROS assay. Type of data set: cell-based, human. The settings on record: A673, 5 μM RC16, 15 h. How it is done: Intracellular ROS were measured by OxiSelect™ Intracellular ROS Assay Kit (Cell Biolabs) following the manufacturer’s instructions. Briefly, cells (1 × 10^5/mL) were washed twice in PBS and incubated with 5 μM 2’,7’-dichlorodihydrofluorescein diacetate (H2DCFDA) 1 h at 37°C. After PBS washes, the medium was changed with a new one containing 5 μM RC16 for 15 h and 24 h. At the end of the treatment samples were washed with PBS and a mixture of medium and cell lysis buffer (1:1) was added for 5 min at 37°C. The fluorescence was read by a fluorimetric plate reader (Spectra max M2, Molecular Device). Excitation wavelength was 480 nm and emission wavelength was 530 nm.

A short description of data set [1]: Pilot pharmacokinetic study in mice. Type of data set: in vivo, mouse. The settings on record: for AUC(0-t): read-out: AUC0-24. How it is done:
To establish a standard assay for RC16 detection and the half-life of RC16 in murine blood, a basic pilot pharmacokinetic study was performed using 1 animal per timepoint. Non-tumor bearing, female, athymic nude mice were treated with RC16 by i.v. or p.o.at doses of 1 mg/kg and 2 mg/kg, respectively. At 2, 4, 6, 12, 24 and 48 h post RC16 administration, a single mouse was anesthetized in an induction chamber with 5.0% isoflurane and an O2 flow rate of 0.8 L/min. Each mouse was transferred to a nose cone supplying 5.0% isoflurane with a O2 flow rate of 0.8 L/min. After confirming sedation by testing hind footpads, each mouse was subjected to exsanguination by cardiac puncture. Blood samples were collected in BD Microtainers (BD, Franklin Lakes, NJ). Plasma was separated by centrifugation at 2000×g for 10 min at 4°C and stored at −80°C until analysis. The RC16 concentration in plasma was determined by liquid LC-MS/MS.
Chromatographic separation was achieved using a Thermo Scientific Accela UHPLC system with HTS PAL autosampler and an Agilent ZORBAX Extend C18 column (50 × 2.1 mm I.D, 3.5 μm particle size) with a C18 guard cartridge maintained at 35°C. A 6.0 min linear gradient program with water/0.3% formic acid as mobile phase A and acetonitrile/0.3% formic acid as mobile phase B at a constant flow rate of 400 μL/min was applied for elution: 0.0 min 25% B, 1.0 min 25% B, 3.0 min 95% B, 4.5 min 95% B, 4.6 min 25% B and 6.0 min 25% B. The autosampler sample draw was set to 4°C, and a divert valve was used (0.0–2.0 min) to prevent early eluting compounds from entering the MS. Selective reaction monitoring with unit resolution was used for MS detection under positive mode. Transition channels from the protonated molecular ion to selected product ion were 377.33 > 153.15 for RC16 and 251.20 > 153.15 for internal standard RC7, respectively. Parameters optimized with a direct infusion of analyte and IS using a syringe pump were as follows: spray voltage, 5000 V; sheath gas and auxiliary gas, 25 and 15 (arbitrary unit), respectively; capillary temperature, 325°C; collision gas pressure, 1.5mTorr and skimmer offset, 10 eV. Tube lens offset was 100 eV for both RC16 and RC7, respectively. Scan time was 0.03 s. Collision energies were 40 eV for RC16 and 33 eV for RC7. Thermo Scientific LCQuan software was employed for system control and data processing.

Data set [2] deals with adult tumor cell lines (A549, MDA-MB-231, WiDr). Nature of the data set: MTT cell killing, adult tumor cell lines (summary). Type of data set: cell-based. The settings on record: Homo sapiens, summary of Table II. As to the method:
Cells were plated in 96-well tissue culture plates at a density of 1 × 10^3 cells/well, allowed to attach 24 h, and then left untreated or treated with growth medium containing different concentrations of the tested RCn compounds previously dissolved in PBS. After different time periods the cell vitality was determined by MTT assay according to the manufacture’s instruction (Promega). Results are reported as the micromolar concentration of RCn reducing cell survival to 50% (IC50).

In data set [3] the test system is nude mice bearing CHLA-20 tumors. In words: Biodistribution study (IVIS imaging). The settings on record: RC16 labelled with Cell-Vue Maroon. Type of data set: in vivo, mouse. How it is done: A pilot biodistribution study using one animal per timepoint was performed to minimize the number of experimental animals. Female athymic nude mice were subcutaneously implanted with 5.0 × 10^6 CHLA-20 cells. When tumors became palpable (approximately 5 mm in diameter), mice were treated with i.v. injections of RC16 labelled with Cell-Vue Maroon (dye:RC16, 1:100 mol:mole) at a dose of 1 mg/kg. […] The mice were then humanely euthanized by CO2 asphyxiation. Organs were removed, weighed and used for quantitative optical imaging by the IVIS system.

A further data set concerns SH-SY5Y cells. In words: Caspase activation (western blot, fluorimetric assay). Type of data set: cell-based. As to the method: Cells with or without RCn treatment were washed with PBS and lysed on ice for 30 min in lysis buffer containing protease and phosphatase inhibitors. Protein concentrations were determined with the Bio-Rad protein assay kit. 50 μg of total protein was separated on 12% SDS-PAGE at 100 V for 1 h and then transferred onto a nitrocellulose membrane using a wet blotting apparatus (Bio-Rad Laboratories) at 20 V overnight. Proteins were detected by enhanced chemiluminescence detection reagents (Amersham Biosciences). The antibodies used for immunoblotting were: caspases 3, 8, 9, and PARP were diluted 1:100 in blocking reagent (Cell Signaling Technology). The exposure time was the same for all the antibodies. Blots were stripped and reprobed with anti-β-tubulin diluted 1:10,000 in blocking reagent (Santacruz Biotechnology) used as the loading control.
Detection of caspase activity was evaluated by ApoFluor Green Apoptosis Detection kits specific for: caspase-1 and caspase-4; caspase-2, caspase-3 and caspase-7; caspase-6, caspase-8, caspase-9, caspase-10, and caspase-13 (MP Biochemicals), according to the manufacturer’s instructions. […] After 1 h incubation samples were washed and analyzed by flow cytometry (FACScan, Becton Dickinson) equipped with a 15-mW argon ion laser at 488 nm ([16]).
On the technique in general: Immunoblotting shows a protein as a band on a membrane.

pIC50: −log10 of the molar value. Where two headings read alike, the source gives them in different places.

For `CCCCCCCCCCCCCCC1CN2CCCN3CCCCCC132` (stereo not drawn) [RC16, 2-tetradecyl-4,8-diazatricyclo[6.5.0.0^1,^4]tridecane], the “Intracellular ROS levels relative to control” value in the data set on A673 was “more than twice the control values”. Also, the half-life (commonly the time in which the quantity being followed falls by half) in data set [1] (female, athymic nude, mouse, plasma, iv, 1 mg/kg i.v., nude mice, read-out: Half-life (converted)) was 324 min; in data set [1] (female, athymic nude, mouse, plasma, 2 mg/kg oral, non-compartmental analysis, nude mice, read-out: Apparent half-life (converted)), 312 min. Further, the bioavailability (commonly dose-corrected exposure relative to a reference, in per cent) in data set [1] (female, athymic nude, mouse, plasma, po, 2 mg/kg, estimated from pilot pharmacokinetic data) was around 6%. Besides, the Cmax in data set [1] (female, athymic nude, mouse, plasma, 2 mg/kg oral, at 4 h, nude mice, read-out: Maximum observed plasma concentration (Cmax)) is 12.5 ng/mL; in data set [1] (female, athymic nude, mouse, plasma, IV, 1 mg/kg, nude mice, read-out: Cmax), 153 ng/mL. The AUC(0-t) in data set [1] (female, athymic nude, mouse, plasma, IV, 1 mg/kg, nude mice) was determined as 1390 ng·h/mL; in data set [1] (female, athymic nude, mouse, plasma, PO, 2 mg/kg, nude mice), 160 ng·h/mL. The concentration at 2 h in data set [1] (female, athymic nude, plasma, intravenous, 1 mg/kg i.v., 2 h, nude mice, 1 mouse per time point) was 153 ng/mL. Moreover, the concentration at 24 h in data set [1] (female, athymic nude, plasma, intravenous, 1 mg/kg i.v., nude mice, 1 mouse per time point) was determined as 11.4 ng/mL; in data set [1] (female, athymic nude, plasma, 2 mg/kg oral, nude mice, 1 mouse per time point), 0.5 ng/mL. The compound also displayed a concentration at 48 h in data set [1] (female, athymic nude, plasma, 2 mg/kg oral, 48 h, nude mice, 1 mouse per time point) of 4.6 ng/mL. The compound further registered an Achieved plasma concentrations in data set [1] (i.v. dose of 1 mg/kg) of 150 to 200 ng/mL. In addition, in data set [2], the negative-log IC50 (pIC50) (commonly the negative decadic logarithm of the IC50, by convention in mol/L) was 5.00 to 6.00. The “Organ fluorescence intensity (biodistribution)” value in data set [3] (1 mg/kg i.v., 12, 24 and 48 h) was “stomach, intestine and liver showed the highest fluorescence intensity”. Moreover, the “RC16 level in tumors over time” value in data set [3] (1 mg/kg i.v., CHLA-20 tumors) is “remained constant over time”. Further, the “Caspase activation, fluorimetric assay (caspases 1, 2, 3, 6, 8, 9, 10, 13)” value in the data set on SH-SY5Y cells (5 μM RC16, 1-24 h) was “all the above caspases were activated already at 4 h”. Moreover, the “Caspase activation, western blot” value with SH-SY5Y cells (5 μM RC16, 2-36 h) is “activation of caspases 3, 8 and 9”.
